Entries after “also recorded” stand apart in the source; their conditions may differ.
How the values were obtained:
[1] = target: T1, KVLQT1+KCNE1 (IKs) (Homo sapiens, UniProt P51787); assay: KVLQT1+KCNE1 (IKs) currents in Xenopus oocytes; format: cell-based
T1 construct: expressed in transfected cells; host or cells: Xenopus laevis oocytes (co-injection of hminK and KVLQT1 cRNA)
Description: Wild type human minK (KCNE1) and KVLQT1 cDNA are isolated from human cardiac and pancreas cDNA libraries and cloned into the pSP64 poly (A) vector (Promega). For transcription in oocytes, the minK is subcloned from genomic DNA using the MKEL and MKER primers. The final minK expression construct contains cDNA inserted in the plasmid vector (PROMEGA). For the injection into Xenopus oocytes, cRNA is prepared using the mCAP RNA capping kit (Stratagene) following linearization of the expression construct by restriction digestion with EcoRI for run-off transcription.
In-vitro transcription is performed with SP6 RNA polymerize using the mMessage Machine kit (Ambion). The final capped-cRNA product is resuspended in 0.1 mM KCL and stored at −80° C. The concentration of synthesized RNA is estimated by separating the denatured cRNA on a 1.5% agarose gel together with the 0.24-9.5 kb RNA ladder (Gibco-BRL).
KVLQT1+KCNE1 currents are recorded with a solution containing in mmol-L: NaCl-96; KCl-2 CaCl2-1.8; MgCl2-1.0; and HEPES 5, pH 7.4. The following testing protocols are used: a) I-V plot, oocytes are held at −80 mV, then step pulses from −60 mV to +40 mV in 20 mV increments of 18 seconds are applied returning to −40 mV; b) Single pulses, the same protocol is applied for control current and after drug perfusion for current measurement. From a holding potential of −80 mV to a test potential of +40 mV during 18 seconds a pulse is applied. […] The cell is either left at a resting potential of −80 mV or stimulated from a holding potential of −80 mV to a test potential of +40 mV during 1000 ms in a frequency range of 0.3 Hz.
Isolation of oocytes and cRNA injection. Xenopus laevis frogs are anesthetized by immersion in 0.2% Trocaine for 15-30 min. A small incision is made in the lateral ventral quadrant of the abdomen and a small piece of ovarian tissue is removed. The incision is then sutured at both the muscle and the cutaneous layers with fine silk thread and the animal is allowed to recover. The ovarian lobe is digested with 10 mg/ml type 1A collagenase (Sigma) in calcium-free solution for 30-60 min to remove the follicle layer. Stage V and VI oocytes are injected with 40 nl of a solution containing 10 to 50 ng/μl cRNA of either SCN5A, HERG, or hminK and KVLQT1, and then incubated at 19° C. in a modified bath solution for 2-8 days.

[2] = test system: ileum; assay: Ileum strip contractility, isometric muscle contractions; design: species or system Guinea pig; conditions: for Bursts / Slow waves / Spikes: mean ± standard deviation; for effect on ileum strip contractility, in words: Table 2 / FIG. 9
Description: Rat Ileum Studies and Characterization of Chiral Separation Products. Guinea pig ileum is harvested and placed in warm (37° C.) Krebs […] buffer and oxygenated (95% O2 and 5% CO2). Segments approximately 4.5 cm long are placed on a transducer (Gilson Instruments) and a preload of 1 gm is placed on the tissue. The tissue is then placed in a chamber and bathed in Tyrode's solution (37.5° C.) and oxygenated (95% O2 and 5% CO2). Muscle contractions are measured isometrically. After stable contractions are obtained, a study compound is added to the tissue bath and recordings are made until a new steady state of contraction is obtained. Following a washout period, a new steady state of contraction is recorded and then the procedure repeated with a second dose of the drug being evaluated. Changes in contraction magnitude are recorded as the percentage change from baseline. This procedure is a modification of the technique described by Van Neuten and associates (Van Neuten et al., Life Sci. 1978 28:453-458). […] The preparation permits the identification of slow waves of contraction, bursts of contraction of the smooth muscle and spikes of marked cross-sectional contraction. Each of the measures can be used as a measurement of contractile effect of an agent.

T1 sequence (P51787 whole entry): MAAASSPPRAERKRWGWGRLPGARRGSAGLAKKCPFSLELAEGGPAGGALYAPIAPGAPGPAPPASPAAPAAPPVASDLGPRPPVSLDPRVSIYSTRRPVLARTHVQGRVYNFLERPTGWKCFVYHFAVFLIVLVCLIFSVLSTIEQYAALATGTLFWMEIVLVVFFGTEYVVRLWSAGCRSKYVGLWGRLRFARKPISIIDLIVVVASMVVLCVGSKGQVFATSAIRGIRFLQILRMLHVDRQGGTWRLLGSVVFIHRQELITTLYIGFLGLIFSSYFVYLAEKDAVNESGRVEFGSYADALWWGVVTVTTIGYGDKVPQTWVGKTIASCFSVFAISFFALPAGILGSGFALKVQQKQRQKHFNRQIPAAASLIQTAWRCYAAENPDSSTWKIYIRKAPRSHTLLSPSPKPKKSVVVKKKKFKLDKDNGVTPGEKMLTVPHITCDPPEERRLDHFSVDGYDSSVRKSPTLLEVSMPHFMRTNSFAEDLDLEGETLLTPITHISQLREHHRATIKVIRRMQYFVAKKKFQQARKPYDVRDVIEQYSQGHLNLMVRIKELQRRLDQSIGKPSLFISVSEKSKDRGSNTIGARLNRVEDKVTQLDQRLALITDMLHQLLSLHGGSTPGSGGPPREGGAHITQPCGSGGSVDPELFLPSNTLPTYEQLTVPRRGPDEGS

Row | SMILES | effect on IKs current, in words ([1]; 100 μM) | % of block of IKs ([1]; 10^−4 Molar) | % of block of IKs ([1]; 10^−5 Molar) | % of block of IKs ([1]; 10^−6 Molar) | reduction of IKs currents ([1]; concentrations from 10^−6 to 10^−4, respectively) | Bursts ([2]; 10^−5 M) | Slow waves ([2]; 10^−5 M) | Spikes ([2]; 10^−5 M) | Bursts ([2]; 10^−6 M) | Slow waves ([2]; 10^−6 M) | Spikes ([2]; 10^−6 M) | Bursts ([2]; 10^−7 M) | Slow waves ([2]; 10^−7 M) | Spikes ([2]; 10^−7 M) | effect on rat illeal strip tracings, in words ([2]; 10^−7 and 10^−6 M, FIG. 9 legend) | effect on ileum strip contractility, in words [2]
1 | CCCCc1oc2ccccc2c1C(=O)c1cc(I)c(OCCN(CC)CC)c(I)c1 [AMIODARONE, amiodarone] | inhibits the current flow across the IKs channel | 47 ± 1% | 30 ± 3% | 15 ± 1% |  |  |  |  |  |  |  |  |  |  |  | 
2 | C=C[C@H]1C[N@@]2CC[C@H]1C[C@@H]2[C@@H](O)c1ccnc2ccc(OC)cc12 [Quinidine, quinidine] |  | 52 ± 5% | 21 ± 7% | 14 ± 5% | 14 to 52% | 14 ± 4 | 6 ± 1 | 15 ± 1 | 7.7 ± 1.2 | 3.0 ± 0.5 | 13 ± 2 | 8 ± 2 | 3.3 ± 0.6 | 11 ± 1 | reduces the magnitude of contraction | augmentation of slow wave contractility, burst contractility and spike contractility; also recorded: increases slow waves
3 | C=C[C@H]1C[N@@]2CC[C@H]1C[C@H]2[C@H](O)c1ccnc2ccc(OC)cc12 [quinine] |  |  |  |  |  |  |  |  |  |  |  |  |  |  |  | no effect

— patent US6844355B2 (Academic Pharmaceuticals, Inc., priority 1999, dated 2005)
